# Measurements from patent US20180024136A1, “Development of ABCG2-Sensitive Fluorescent Probe For Isolation of ABCG2low Neural Stem/Progenitor Cells” (National University of Singapore, priority 2015, published 2018).
# Assay: Spectroscopic properties of CF library (absorbance, emission, quantum yield, extinction coefficient)
# Format: physicochemical
# Details: 100 μM in ethanol; for QY (Φ): reference fluorescein
# Description: All the chemicals and solvents were purchased from Sigma Aldrich, Alfa Aesar, Fluka, MERCK, Tocris or Acros, and used without further purification. Normal phase purifications were carried out using Merck Silica Gel 60 (particle size: 0.040-0.063 mm, 230-400 mesh). Analytical characterization was performed on a HPLC-MS (Agilent-1200 series) with a DAD detector and a single quadrupole mass spectrometer (6130 series) with an ESI probe. ^1H-NMR and ^13C-NMR spectra were recorded on Bruker Avance 300 MHz NMR spectrometers, and chemical shifts are expressed in parts per million (ppm) and coupling constants are reported as a J value in Hertz (Hz). High resolution mass spectrometry (HRMS) data was recorded on a Micro mass VG 7035 (Mass Spectrometry Laboratory at National University of Singapore (NUS)). Spectroscopic and quantum yield data were measured on spectroscopic measurements, performed on a fluorometer and UV/VIS instrument, Synergy 4 of Bioteck Company. The slit width was 1 nm for both excitation and emission, and the data analysis was performed using GraphPrism 5.0.
SMILES,Abs (nm),Em (nm),QY (Φ)
O=C(NCC1CCCCC1)c1ccc(-c2c3cc(Cl)c(=O)cc-3oc3cc(O)c(Cl)cc23)cc1 [CF-G9],520,557,0.27
CCCCN(CCCC)C(=O)c1ccc(-c2c3cc(Cl)c(=O)cc-3oc3cc(O)c(Cl)cc23)cc1 [CF-E3],520,554,0.66
CN(CCc1ccccc1)C(=O)c1ccc(-c2c3cc(Cl)c(=O)cc-3oc3cc(O)c(Cl)cc23)cc1 [CF-D4],520,555,0.69
COc1ccc(CCNC(=O)c2ccc(-c3c4cc(Cl)c(=O)cc-4oc4cc(O)c(Cl)cc34)cc2)cc1OC [CF-B10],520,559,0.56
CC1CCCCC1NC(=O)c1ccc(-c2c3cc(Cl)c(=O)cc-3oc3cc(O)c(Cl)cc23)cc1 (stereo not drawn) [CF-C7],520,558,0.42
CCOCCCNC(=O)c1ccc(-c2c3cc(Cl)c(=O)cc-3oc3cc(O)c(Cl)cc23)cc1 [CF-E4],520,558,0.47
CC1CCCC(NC(=O)c2ccc(-c3c4cc(Cl)c(=O)cc-4oc4cc(O)c(Cl)cc34)cc2)C1C (stereo not drawn) [CF-H2],520,556,0.65
O=C(NC1CCCCCC1)c1ccc(-c2c3cc(Cl)c(=O)cc-3oc3cc(O)c(Cl)cc23)cc1 [CF-C9],520,558,0.50
O=C(NCc1ccc(OC(F)(F)F)cc1)c1ccc(-c2c3cc(Cl)c(=O)cc-3oc3cc(O)c(Cl)cc23)cc1 [CF-A8],520,558,0.37
CCCCC(CC)COCCCNC(=O)c1ccc(-c2c3cc(Cl)c(=O)cc-3oc3cc(O)c(Cl)cc23)cc1 (stereo not drawn) [CF-B5],520,559,0.54
CCCCCCCCCCCCCCCCCCN(C)C(=O)c1ccc(-c2c3cc(Cl)c(=O)cc-3oc3cc(O)c(Cl)cc23)cc1 [CF-H11],520,552,0.32
CCCCCCNC(=O)c1ccc(-c2c3cc(Cl)c(=O)cc-3oc3cc(O)c(Cl)cc23)cc1 [CF-H4],520,556,0.63
CCCCCCCNC(=O)c1ccc(-c2c3cc(Cl)c(=O)cc-3oc3cc(O)c(Cl)cc23)cc1 [CF-B11],520,558,0.66
O=C(NCc1c(Cl)cccc1Cl)c1ccc(-c2c3cc(Cl)c(=O)cc-3oc3cc(O)c(Cl)cc23)cc1 [CF-E2],520,557,0.63
C#CCNC(=O)c1ccc(-c2c3cc(Cl)c(=O)cc-3oc3cc(O)c(Cl)cc23)cc1 [CF-F11],520,559,0.21
CCCCCNC(=O)c1ccc(-c2c3cc(Cl)c(=O)cc-3oc3cc(O)c(Cl)cc23)cc1 [CF-G10],520,558,0.23
CCOC(=O)N1CCC(NC(=O)c2ccc(-c3c4cc(Cl)c(=O)cc-4oc4cc(O)c(Cl)cc34)cc2)CC1 [CF-G6],520,556,0.29
COc1cccc(CNC(=O)c2ccc(-c3c4cc(Cl)c(=O)cc-4oc4cc(O)c(Cl)cc34)cc2)c1 [CF-C4],520,559,0.55
CCCCCCCCCCCCCCCCCCNC(=O)c1ccc(-c2c3cc(Cl)c(=O)cc-3oc3cc(O)c(Cl)cc23)cc1 [CF-D6],520,555,0.32
CCCCN(CC)C(=O)c1ccc(-c2c3cc(Cl)c(=O)cc-3oc3cc(O)c(Cl)cc23)cc1 [CF-B4],520,556,0.90

SMILES,Abs (nm),Em (nm),QY (Φ)
CC(C)NC(=O)c1ccc(-c2c3cc(Cl)c(=O)cc-3oc3cc(O)c(Cl)cc23)cc1 [CF-B8],520,559,0.57
CCCN(CCC)C(=O)c1ccc(-c2c3cc(Cl)c(=O)cc-3oc3cc(O)c(Cl)cc23)cc1 [CF-A11],520,558,0.36
CN(C(=O)c1ccc(-c2c3cc(Cl)c(=O)cc-3oc3cc(O)c(Cl)cc23)cc1)C1CCCCC1 [CF-A10],520,558,0.63
CC(C)OCCCNC(=O)c1ccc(-c2c3cc(Cl)c(=O)cc-3oc3cc(O)c(Cl)cc23)cc1 [CF-F9],520,557,0.34
CCCCC(CC)CNC(=O)c1ccc(-c2c3cc(Cl)c(=O)cc-3oc3cc(O)c(Cl)cc23)cc1 (stereo not drawn) [CF-B9],520,558,0.60
O=C(NCCCN1CCCC1=O)c1ccc(-c2c3cc(Cl)c(=O)cc-3oc3cc(O)c(Cl)cc23)cc1 [CF-D2],520,557,0.61
COCCN(CCOC)C(=O)c1ccc(-c2c3cc(Cl)c(=O)cc-3oc3cc(O)c(Cl)cc23)cc1 [CF-H3],520,553,0.82
CCCCCCCCCCCCCCNC(=O)c1ccc(-c2c3cc(Cl)c(=O)cc-3oc3cc(O)c(Cl)cc23)cc1 [CF-A2],520,558,0.42
Cc1cccc(CN(C)C(=O)c2ccc(-c3c4cc(Cl)c(=O)cc-4oc4cc(O)c(Cl)cc34)cc2)c1 [CF-D7],520,555,0.54
O=C(NCCc1ccccc1Cl)c1ccc(-c2c3cc(Cl)c(=O)cc-3oc3cc(O)c(Cl)cc23)cc1 [CF-H8],520,556,0.51
COc1cccc(CCNC(=O)c2ccc(-c3c4cc(Cl)c(=O)cc-4oc4cc(O)c(Cl)cc34)cc2)c1OC [CF-E7],520,557,0.46
O=C(NCCC(c1ccccc1)c1ccccc1)c1ccc(-c2c3cc(Cl)c(=O)cc-3oc3cc(O)c(Cl)cc23)cc1 [CF-D10],520,558,0.59
O=C(NCCCCc1ccccc1)c1ccc(-c2c3cc(Cl)c(=O)cc-3oc3cc(O)c(Cl)cc23)cc1 [CF-D11],520,558,0.44
CCCCCCN(C)C(=O)c1ccc(-c2c3cc(Cl)c(=O)cc-3oc3cc(O)c(Cl)cc23)cc1 [CF-F10],520,559,0.35
O=C(NC1Cc2ccccc2C1)c1ccc(-c2c3cc(Cl)c(=O)cc-3oc3cc(O)c(Cl)cc23)cc1 [CF-D8],520,558,0.47
O=C(NCCc1ccccc1-c1ccccc1)c1ccc(-c2c3cc(Cl)c(=O)cc-3oc3cc(O)c(Cl)cc23)cc1 [CF-H9],520,558,0.30
CCC(NC(=O)c1ccc(-c2c3cc(Cl)c(=O)cc-3oc3cc(O)c(Cl)cc23)cc1)c1ccccc1 (stereo not drawn) [CF-A3],520,559,0.40
CCCNC(=O)c1ccc(-c2c3cc(Cl)c(=O)cc-3oc3cc(O)c(Cl)cc23)cc1 [CF-D9],520,558,0.25
COc1ccc(CCNC(=O)c2ccc(-c3c4cc(Cl)c(=O)cc-4oc4cc(O)c(Cl)cc34)cc2)cc1 [CF-C5],520,558,0.63
